Data as given in patent US20110268789A1, “USE OF PITUITARY ADENYLATE CYCLASE-ACTIVATING POLYPEPTIDE (PACAP) AND PACAP ANALOGS AS ADJUNCTIVE TREATMENTS WITH ANTICANCER AGENTS” (priority 2008, published 2011).
Like-named read-outs stand apart in the source and are kept apart here.

Key:
[1] = tested on: Middle cerebral artery occlusion (MCAO) in the rat; conditions: cited from earlier work; for reduction of the infarct volume: 48 hours after start
[2] = tested on: human erythroleukemia cells; test: Thalidomide-induced apoptotic cell death of erythroleukemia cells; type: cell-based
Procedure: The human myeloid leukemia cells were cultured in RPMI 1640 medium supplemented with 10% non-inactivated fetal bovine serum. The effects of PACAP38, [D-Ser^2]PACAP38 and VIP on apoptotic cell death was assessed by the quantitative determination of cytoplasmic histone-associated DNA-fragmentation (mono- and oligonucleosomes) after exposure to thalidomide for 48 hours. Each value represents the mean plus/minus the standard deviation of four determinations. **p<0.01 and *p<0.05 compared to the thalidomide-treated (control) cells.

[3] = tested on: PC-12 rat pheochromocytoma cells; test: Cisplatin-induced apoptotic cell death of pheochromocytoma cells; type: cell-based; conditions: PC-12 cells
Procedure: The PC-12 rat pheochromocytoma cells were cultured in F-12K medium supplemented with 15% horse serum and 2.5% fetal bovine serum. The dose-dependent inhibitory effects of PACAP38 and the PACAP38 analogs on apoptotic cell death were assessed by the quantitative determination of cytoplasmic histone-associated DNA-fragmentation (mono- and oligonucleosomes) after exposure to cisplatin for 24 hours. Each value represents the mean plus/minus the standard error of four determinations. **p<0.01 and *p<0.05 compared to the cisplatin-treated (control) cells.

[4] = tested on: Jurkat human T-lymphocyte leukemia cells; test: Etoposide-induced apoptotic cell death of leukemia cells; type: cell-based
Procedure: The Jurkat human T-lymphocyte leukemia cells were cultured in RPMI 1640 medium supplemented with 10% non-inactivated fetal bovine serum. The effects of PACAP27 and PACAP38 on apoptotic cell death was assessed by the quantitative determination of cytoplasmic histone-associated DNA-fragmentation (mono- and oligonucleosomes) after exposure to etoposide for 48 hours. Each value represents the mean plus/minus the standard deviation of three determinations. **p<0.01 and *p<0.05 compared to the etoposide-treated (control) cells.

HK-2 human kidney cells = test: Doxorubicin-induced apoptotic cell death of human renal proximal tubule epithelial cells; type: cell-based; conditions: HK-2 cells, peptide added to the medium, FIG. 11
Procedure: The HK-2 human kidney cells were cultured in Keratinocyte-Serum Free Medium supplemented with recombinant epidermal growth factor and bovine pituitary extract. […] Each value represents the mean plus/minus the standard deviation of four determinations in three replicate experiments. **p<0.01 and *p<0.05 compared to the doxorubicin-treated (control) cells.
At the highest dose tested (10^−6 M), all three peptides reduced the apoptotic cell death of these epithelial cells by more than 60%.

[5] = tested on: light-chain immunoglobulin-secreting human myeloma cells; test: Vincristine-induced apoptotic cell death of myeloma cells; type: cell-based
Procedure: The light-chain immunoglobulin-secreting human myeloma cells were cultured in RPMI 1640 medium supplemented with 10% non-inactivated fetal bovine serum and 0.05 mM 2-mercaptoethanol. The effects of PACAP38 on apoptotic cell death was assessed by the quantitative determination of cytoplasmic histone-associated DNA-fragmentation (mono- and oligonucleosomes) after exposure to vincristine for 48 hours. Each value represents the mean plus/minus the standard deviation of four determinations. **p<0.01 and *p<0.05 compared to the vincristine-treated (control) cells.

L-132 human lung cells = test: Bleomycin-induced apoptotic cell death of human pulmonary epithelial cells; type: cell-based; conditions: L-132 cells, peptide added to the medium, FIG. 12
Procedure: The L-132 human lung cells were cultured in Eagle's Minimum Essential Medium supplemented with 10% fetal bovine serum. […] Each value represents the mean plus/minus the standard deviation of four determinations in three replicate experiments. **p<0.01 and *p<0.05 compared to the bleomycin-treated (control) cells.
At the highest dose tested (10^−6 M), all three peptides reduced the apoptotic cell death of these epithelial cells by more than 60%. […] Therefore, pre- and/or post-treatment of subjects undergoing bleomycin-based cancer chemotherapy with therapeutic doses of PACAP38 and/or PACAP analogs should result in a higher maximal tolerable dose of bleomycin, and an increased frequency of partial clinical responses and/or an increased number of complete remissions.

Substance: PACAP38
- reduction of the infarct volume ([1]; 160 pmol/hr i.v. infusion beginning 4 hours after start of MCAO): approximately 51%
- reduction of the infarct volume ([1]; 160 pmol/hr i.v. infusion beginning 8 hours after start of MCAO): ~22%
- reduction of the infarct volume ([1]; 160 pmol/hr i.v. infusion beginning 12 hours after start of MCAO): ~12%
- effect of continuous intravenous infusion on plasma glucose levels, blood gases, blood pressure ([1]; 160 pmol/hr i.v.): did not appear to alter plasma glucose levels, blood gases or blood pressure
- lowest dose with significant enhancement of thalidomide-induced apoptotic cell death [2]: 10^−8 M
- effect on thalidomide-induced apoptotic cell death ([2]; thalidomide 48 hours, FIG. 20): dose-dependent enhancement
- reduction in cisplatin-induced apoptotic cell death ([3]; cisplatin 24 hours, FIG. 13): dose-dependent reduction
- reduction of cisplatin-induced apoptotic cell death ([3]; highest dose tested (10^−6 M)): significantly reduced
- reduction in etoposide-induced apoptotic cell death ([4]; Jurkat cells, etoposide 48 hours, FIG. 15): small reduction
- significance of the reduction of etoposide-induced apoptotic cell death ([4]; Jurkat cells, highest dose tested 10^−6 M): only significant at the highest dose
- potency as cytoprotectant of kidney and lung epithelial cells relative to protection of T-lymphocyte leukemia cells against etoposide ([4]; versus cisplatin (FIG. 3), doxorubicin (FIG. 11), bleomycin (FIG. 12)): about 100 fold
- reduction in doxorubicin-induced apoptotic cell death (HK-2 human kidney cells): significant dose-dependent reduction
- lowest dose with significant enhancement of vincristine-induced apoptotic cell death [5]: 10^−9 M
- effect on vincristine-induced apoptotic cell death ([5]; vincristine 48 hours, FIG. 18): dose-dependent enhancement
- reduction in bleomycin-induced apoptotic cell death (L-132 human lung cells): significant dose-dependent reduction
